In patent US20220204497A1, “NOVEL COMPOUND HAVING ANTICANCER ACTIVITY, AND METHOD FOR PRODUCING SAME” (MEDICINAL BIOCONVERGENCE RESEARCH CENTER, priority 2019, published 2022):

Key:
[1] = tested on: A549 cells; assay: Cell viability by MTT method in A549 cells; format: cell-based; design: concentration or dose not given beside the values; details: 72 hours treatment
[2] = molecular target: T1, AIMP2-DX2 (Homo sapiens, UniProt Q13155); assay: DX2-nanoluciferase assay (DX2 expression change) in transfected A549 cells; details: inhibitory effect on AIMP2-DX2 expression; for inhibition at 40 µM: A549, 4 h, read-out: DX-Nanoluciferase activity (40 μM), 40 μM, 4 hours treatment, A549 cells transfected with nanoluciferase-DX2
T1 sequence (Q13155 1-251 isoform Q13155-2): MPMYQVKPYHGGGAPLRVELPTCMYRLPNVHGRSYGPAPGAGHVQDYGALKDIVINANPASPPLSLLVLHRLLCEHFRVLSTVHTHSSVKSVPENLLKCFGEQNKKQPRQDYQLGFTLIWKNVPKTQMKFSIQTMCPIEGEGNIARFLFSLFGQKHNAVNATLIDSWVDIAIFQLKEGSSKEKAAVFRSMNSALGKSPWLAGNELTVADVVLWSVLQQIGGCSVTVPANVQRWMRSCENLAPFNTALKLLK
Procedure: After cloning DX2 into a plasmid expressing nanoluciferase, the plasmid was transfected into A549 cells. Transfected cells were seeded 1×10^4 per well in a 96-well plate and stabilized for 12 hours. […] Cell viability was measured by the MTT method after 72 hours of treatment with each concentration of the compound in A549 cells.

| SMILES | Cell Viability (% inhibition) (A549) [1] [%] | inhibition at 40 µM [2] [%] | DX-Nanoluciferase activity (40 μM) ([2]; 40 μM, 4 hours treatment, A549 cells transfected with nanoluciferase-DX2) |
| --- | --- | --- | --- |
| Cc1ccc(S(=O)(=O)N[C@@H](CC(C)C)C(=O)Nc2ccc(N3CCC(C)CC3)nc2)cc1 [Compound 9, (S)-4-Methyl-2-(4-methylphenylsulfonamido)-N-(6-(4-methylpiperidin-1-yl)pyridin-3-yl)pentanamide] | 78.3 | 18.3 |  |
| Cc1ccc(S(=O)(=O)N[C@@H](CC(C)C)C(=O)Nc2cc(N3CCC(C)CC3)ncn2)cc1 [Compound 10, (S)-4-methyl-2-(4-methylphenylsulfonamido)-N-(6-(4-methylpiperidin-1-yl)pyrimidin-4-yl)pentanamide] | 72.7 | 1.5 |  |
| Cc1ccc(S(=O)(=O)N[C@@H](CC(C)C)C(=O)Nc2ccc(N3CCOCC3)nc2)cc1 [Compound 12, (S)-4-Methyl-2-(4-methylphenylsulfonamido)-N-(6-morpholinopyridin-3-yl)pentanamide] | 23.26 | 43.8 ± 8.7 |  |
| Cc1ccc(S(=O)(=O)N[C@@H](CC(C)C)C(=O)Nc2ccc(N3C[C@@H](C)O[C@@H](C)C3)nc2)cc1 [Compound 13, (S)—N-(6-((2S,6R)-2,6-dimethylmorpholino)pyridin-3-yl)-4-methyl-2-(4-methylphenylsulfonamido)pentanamide] | 14.99 | 51.3 ± 4 |  |
| Cc1ccc(S(=O)(=O)N[C@@H](CC(C)C)C(=O)Nc2ccc(N3CCOCC3)c(F)c2)cc1 [Compound 14, (S)—N-(3-fluoro-4-morpholinophenyl)-4-methyl-2-(4-methylphenylsulfonamido)pentanamide] | 29.87 ± 2.48 | 55.6 ± 1.06 |  |
| Cc1ccc(S(=O)(=O)N[C@@H](CC(C)C)C(=O)Nc2ccc(N3CCN(C(=O)OC(C)(C)C)CC3)nc2)cc1 [Compound 16, (S)-tert-butyl 4-(5-(4-methyl-2-(4-methylphenylsulfonamido)pentanamido)pyridin-2-yl)piperazine-1-carboxylate] | 73.5 | 9.8 |  |
| Cc1ccc(S(=O)(=O)N[C@@H](CC(C)C)C(=O)NCCN2CCOCC2)cc1 [Compound 18, (S)-4-methyl-2-(4-methylphenylsulfonamido)-N-(2-morpholinoethyl)pentanamide] | 8.7 | 14.8 |  |
| CC(C)C[C@H](NS(=O)(=O)c1cccc([N+](=O)[O-])c1)C(=O)N1CCOCC1 [Compound 19, (S)—N-(4-methyl-1-morpholino-1-oxopentan-2-yl)-3-nitrobenzenesulfonamide] | 22.61 | 33.8 ± 8.2 |  |
| CC(C)C[C@H](NS(=O)(=O)c1cccc(N)c1)C(=O)N1CCOCC1 [Compound 20, (S)-3-amino-N-(4-methyl-1-morpholino-1-oxopentan-2-yl)benzenesulfonamide] | 24.57 | 31 ± 9.9 |  |
| CC(C)C[C@H](NS(=O)(=O)c1ccc(C(F)(F)F)cc1)C(=O)Nc1ccc(N2CCOCC2)cc1 [Compound 23, (S)-4-methyl-N-(4-morpholinophenyl)-2-(4-(trifluoromethyl)phenylsulfonamido)pentanamide] | 64.35 | 24.5 ± 4.4 |  |
| CC(C)C[C@H](NS(=O)(=O)c1cccc([N+](=O)[O-])c1)C(=O)Nc1ccc(N2CCOCC2)cc1 [Compound 24, (S)-4-methyl-N-(4-morpholinophenyl)-2-(3-nitrophenylsulfonamido)pentanamide] | 18.38 ± 11.76 | 59.4 ± 2.3 |  |
| CC(C)C[C@H](NS(=O)(=O)c1cccc2ccccc12)C(=O)Nc1ccc(N2CCOCC2)cc1 [Compound 25, (S)-4-methyl-N-(4-morpholinophenyl)-2-(naphthalene-1-sulfonamido)pentanamide] | 38.92 ± 1.69 | 25.5 ± 5.4 |  |
| CC(C)C[C@H](NS(=O)(=O)c1ccc2ccccc2c1)C(=O)Nc1ccc(N2CCOCC2)cc1 [Compound 26, (S)-4-methyl-N-(4-morpholinophenyl)-2-(naphthalene-2-sulfonamido)pentanamide] | 5.95 ± 2.15 | 52.7 ± 10.5 |  |
| CC(C)C[C@H](NC(=O)CCS(=O)(=O)c1ccccc1)C(=O)OCc1ccccc1 [Compound 28, (S)-Benzyl 4-methyl-2-(3-(phenylsulfonyl)propanamido)pentanoate] | 12.43 ± 8.58 |  | 57.4 ± 8.4 |
| CC(C)C[C@H](NS(=O)(=O)c1cccs1)C(=O)Nc1ccc(N2CCOCC2)cc1 [Compound 30, (S)-4-methyl-N-(4-morpholinophenyl)-2-(thiophene-2-sulfonamido)pentanamide] | 9.46 ± 9.61 | 23.7 ± 3.1 |  |
| CC(C)C[C@H](NS(=O)(=O)c1ccc(C(C)C)cc1)C(=O)Nc1ccc(N2CCOCC2)cc1 [Compound 32, (S)-2-(4-isopropylphenylsulfonamido)-4-methyl-N-(4-morpholinophenyl)pentanamide] | 20.27 ± 5.87 | 25.8 ± 2.5 |  |
| CC(C)C[C@H](NS(=O)(=O)c1ccc(OCc2ccccc2)cc1)C(=O)N1CCOCCOCCOCC1 [Compound 34, (S)-4-(benzyloxy)-N-(4-methyl-1-oxo-1-(1,4,7-trioxa-10-azacyclododecan-10-yl)pentan-2-yl)benzenesulfonamide] | 38.82 ± 5.12 | 34.4 ± 0.91 |  |
| CC(C)C[C@H](NS(=O)(=O)c1ccc(O)cc1)C(=O)N1CCOCCOCCOCC1 [Compound 35, (S)-4-hydroxy-N-(4-methyl-1-oxo-1-(1,4,7-trioxa-10-azacyclododecan-10-yl)pentan-2-yl)benzenesulfonamide] | −1.97 ± 14.7 | 41.9 ± 1.66 |  |
| CC(C)C[C@H](NS(=O)(=O)c1ccc(C(=O)OCc2ccccc2)cc1)C(=O)N1CCOCCOCCOCC1 [Compound 36, (S)-benzyl 4-(N-(4-methyl-1-oxo-1-(1,4,7-trioxa-10-azacyclododecan-10-yl)pentan-2-yl)sulfamoyl)benzoate] | 64.40 ± 2.96 | 36.8 ± 2.25 |  |
| Cc1ccc(S(=O)(=O)N[C@@H](CC(=O)OC(C)(C)C)C(=O)N2CCOCC2)cc1 [Compound 37, (S)-tert-butyl 3-(4-methylphenylsulfonamido)-4-morpholino-4-oxobutanoate] | 20.33 | 45 ± 7.8 |  |
| Cc1ccc(S(=O)(=O)N[C@@H](Cc2ccccc2)C(=O)N2CCOCC2)cc1 [Compound 38, (S)-4-methyl-N-(1-morpholino-1-oxo-3-phenylpropan-2-yl)benzenesulfonamide] | 15.14 ± 1.24 | 32.3 ± 2.6 |  |
